Source: PMC11062507

Columns and labels:
[1] = system: CArah1-1 (DNA, aptamer, circular (5' and 3' ends ligated)) ATCCGATCGAGAGGATCCGGAAACATGCGAATTAATGAGGCCCCAAGATAGCTAAGAGAT; assay: MMC-GO-based binding assay, SYBR Gold fluorescence; conditions: 1x binding buffer (composition not stated); specificity test, concentration not given
Ara h1 (peanut allergen) [2] = target: T1, Ara h1 (peanut allergen) (peanut, UniProt P43238 85-626); assay: MST; labeled Ara h1 fixed, aptamer titrated, 25 C; 1x binding buffer (composition not in material); aptamer heated 95 C 5 min, ice 15 min, incubated 60 min with target, then MMC-GO 20 min; MST at 25 C; conditions: protein: native; tags: RED-NHS dye label in MST; label: SYBR Gold staining in MMC-GO assay; circular ssDNA
T1 sequence: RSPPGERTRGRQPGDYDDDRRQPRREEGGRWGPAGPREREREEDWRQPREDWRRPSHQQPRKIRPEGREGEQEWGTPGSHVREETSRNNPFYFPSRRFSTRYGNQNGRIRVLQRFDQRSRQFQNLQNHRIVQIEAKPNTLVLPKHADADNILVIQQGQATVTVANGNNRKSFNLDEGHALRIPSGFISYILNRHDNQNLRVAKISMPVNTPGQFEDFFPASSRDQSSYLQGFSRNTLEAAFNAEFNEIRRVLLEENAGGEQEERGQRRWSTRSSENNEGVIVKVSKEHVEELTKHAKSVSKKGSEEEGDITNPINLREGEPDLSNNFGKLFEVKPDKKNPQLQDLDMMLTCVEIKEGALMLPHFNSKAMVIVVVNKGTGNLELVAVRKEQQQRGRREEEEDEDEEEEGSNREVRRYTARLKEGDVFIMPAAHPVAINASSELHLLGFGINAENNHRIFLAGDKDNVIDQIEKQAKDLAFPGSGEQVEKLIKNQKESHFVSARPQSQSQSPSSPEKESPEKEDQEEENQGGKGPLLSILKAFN

Ara h1 (peanut allergen) [3] = target: T1, Ara h1 (peanut allergen); assay: MMC-GO-based fluorescence binding assay; 1x binding buffer (composition not in material); aptamer heated 95 C 5 min, ice 15 min, incubated 60 min with target, then MMC-GO 20 min; MST at 25 C; conditions: protein: native; tags: RED-NHS dye label in MST; label: SYBR Gold staining in MMC-GO assay; circular ssDNA
Ara h1 (peanut allergen) [4] = target: T1, Ara h1 (peanut allergen); assay: MMC-GO-based fluorescence binding assay; Kd only in figure; 1x binding buffer (composition not in material); aptamer heated 95 C 5 min, ice 15 min, incubated 60 min with target, then MMC-GO 20 min; MST at 25 C; conditions: protein: native; tags: RED-NHS dye label in MST; label: SYBR Gold staining; circular ssDNA

Cc1cc2nc3c(=O)[nH]c(=O)nc-3n(C[C@H](O)[C@H](O)[C@H](O)CO)c2cc1C
binding [1]: no

N[C@@H](Cc1c[nH]c2ccccc12)C(=O)O
binding [1]: no

N[C@@H](Cc1ccccc1)C(=O)O
binding [1]: no

Nc1ncnc2c1ncn2[C@@H]1O[C@H](COP(=O)(O)OP(=O)(O)OP(=O)(O)O)[C@@H](O)[C@H]1O
binding [1]: no

O=C1O[C@H]([C@@H](O)CO)C(O)=C1O
binding [1]: no

OC[C@H]1OC(O)[C@H](O)[C@@H](O)[C@@H]1O (stereo partly shown)
binding [1]: no

B1: CArah1-1 (structured_DNA)
DNA: ATCCGATCGAGAGGATCCGGAAACATGCGAATTAATGAGGCCCCAAGATAGCTAAGAGAT
modifications: circular (5' and 3' ends ligated)
Kd (Ara h1 (peanut allergen) [2]): 201 nM | Kd (Ara h1 (peanut allergen) [3]): 981 nM

B2: CArah1-3 (structured_DNA)
DNA: ATCCGATCGATTCTACGGTTTTTCGCTAACGTTCACTGCACTGTATCTGGGCTAAGAGAT
modifications: circular (5' and 3' ends ligated)
binding result (Ara h1 (peanut allergen) [4]): binds

B3: CArah1-4 (structured_DNA)
DNA: ATCCGATCGATCAACAAACTTCGTGGCTCACCCAGACATTCACTCATGCGGCTAAGAGAT
modifications: circular (5' and 3' ends ligated)
binding result (Ara h1 (peanut allergen) [4]): binds
